Assay results reported in patent US20230159583A1, “COMPOUND FOR TREATING GOUT, PREPARATION METHOD THEREFOR, AND USE THEREOF” (Huazhong Pharmaceutical Co., Ltd., priority 2020, published 2023).
Read-outs that look alike come from different tables or passages of the source.

Tests used:
Type in all cases: in vivo
[1] = system: ICR mice; conditions: p.o.
Method: The experiment was designed according to the “Technical Guideline for Acute Toxicity Test of Chemical Drugs” issued by the State Food and Drug Administration in March 2005. The doses administered were 4 g/kg, 4.91 g/kg, 6.14 g/kg, 7.68 g/kg, 9.6 g/kg, 12 g/kg, and 15 g/kg (the dose could be adjusted according to the actual test results), 12 ICR mice per dose group. If the administration volume is greater than 0.5 ml, it is better to perform the drug administration in two or more times (Note: according to the national standard GB 15193.3-2014, if multiple drug administrations are required, the time interval should be 4 h to 6 h each time, and the patient should be fasted on the day before drug administration).

[2] = system: carrageenan-induced mouse paw swelling; test: carrageenan-induced mouse paw swelling model; conditions: for Circumference of the paw after administration: 180 min after onset of inflammation (0.5% carrageenan); for inhibition in vivo at 0.26 mg/kg / inhibition in vivo at 13 mg/kg / inhibition in vivo at 130 mg/kg / change in vivo at 130 mg/kg: Mus musculus, po, 3 h; for inhibition in vivo at 0.26 mg/kg: dosage 0.26 mg/kg; for inhibition in vivo at 0.26 mg/kg / inhibition in vivo at 13 mg/kg / inhibition in vivo at 130 mg/kg: read-out: Swelling inhibition rate; for inhibition in vivo at 13 mg/kg: dosage 13 mg/kg; for change in vivo at 130 mg/kg: read-out: Swelling degree
Method: The anti-inflammatory effects of the compounds prepared in the above Examples were detected using a carrageenan-induced mouse paw swelling model, and the control sample was methylprednisolone:
Carrageenan-induced mouse paw swelling model is a classical acute inflammation model commonly used for evaluating or screening anti-inflammatory effects of drugs. When carrageenan is injected into the paw of mice, a series of reactions similar to human acute inflammation such as local capillary dilatation, increased vascular permeability, exudation and edema can be caused, so the model can be widely used in the evaluation of new drugs.
Reference for experimental method: Yang Huan, Cheng Xiao, Wang Yuehua, Du Guanhua. Effects of esculin on the swelling of toes and inflammation induced by carrageenan in mice [J]. Chinese Journal of New Drugs, 2016(25):2322.
On the day of the experiment, the circumference of right hind paw (cm) of each mouse was measured firstly, and then, after the onset of inflammation, the circumference of right hind paw was measured so that the difference of the circumferences of the paws before and after inflammation was swelling degree, and the swelling inhibition rate of paw (swelling inhibition rate %=(C−T)/C*100%); C=swelling rate of the control group %, and T=swelling rate of the treatment group) was calculated.
(2) Gavage administration was performed once a day for seven consecutive days. The circumference of the right hind paw was marked and measured before the last administration, and the average value of the two measurements was taken as the standard. 30 min after the last administration, 20 μL/mice of 0.5% carrageenan was injected into the right hind ankle of the mice to induce inflammation, and the circumference of paw was measured 180 min after the onset of inflammation. […]

[3] = system: rat paw swelling induced by monosodium urate (MSU); test: rat paw swelling model induced by monosodium urate (MSU); conditions: for inhibition in vivo at 90 mg/kg / inhibition in vivo at 0.36 mg/kg / inhibition in vivo at 1.8 mg/kg / inhibition in vivo at 9 mg/kg / change in vivo at 90 mg/kg: Rattus norvegicus, po; for inhibition in vivo at 90 mg/kg / inhibition in vivo at 0.36 mg/kg / inhibition in vivo at 1.8 mg/kg / inhibition in vivo at 9 mg/kg: 1 h, read-out: Swelling inhibition rate; for inhibition in vivo at 0.36 mg/kg: dosage 0.36 mg/kg; for inhibition in vivo at 1.8 mg/kg: dosage 1.8 mg/kg; for inhibition in vivo at 9 mg/kg: dosage 9 mg/kg; for change in vivo at 90 mg/kg: read-out: Swelling degree; for Mean volume of paw after administration: 1 h after onset of inflammation (50 μL 2% MSU)
Source text: Gout is a disease unique to human, and gouty arthritis is an inflammatory reaction caused by the deposition of monosodium urate (MSU) in local joint tissues. Since purine metabolism pathways in some mammals such as mice and rabbits are different from those in humans, it is impossible to construct a gouty arthritis model by the method of interfering with purine metabolism disorders, so the most direct method for causing gouty arthritis is to directly inject MSU into the joint cavity of the model animal. The model is only used for simulating local joint inflammation of gout, is suitable for observation of local arthritis symptoms, is a common method for screening anti-inflammatory effects of gout drugs at present, and has the advantages of stability, easy operation and the like. (Reference: Li Na, Hua Long, and Yuan Hui. Research progress of gout animal models [J]. Medical theory and practice, 2016(24).
The anti-gout effect of the compound prepared in the above Example was detected by using a rat paw swelling model induced by monosodium urate (MSU), and the control sample was methylprednisolone.
Experimental method: MSU was used as an inflammatory agent, injected subcutaneously into the hind paws of rats to cause paw swelling, and then the volume of the paws was measured, and the swelling rates and swelling inhibition rates of the treatment group and the control group were compared. On the day of the experiment, the volume of right hind paw (ml) of each rat was measured firstly, and then after the onset of inflammation, the volume of right hind paw was measured so that the difference of volume of paw before and after inflammation was swelling degree, and the swelling inhibition rate of paw (swelling inhibition rate %=(C−T)/C*100%); C=swelling rate of the control group %, and T=swelling rate of the treatment group) was calculated. This method is one of the commonly used methods for screening anti-inflammatory effects of gout drugs, and the model is stable and easy to operate.
(2) One week before the subcutaneous injection of MSU into the feet and soles of the rats, the rats were given different doses of the test drugs, and the drugs were given by gavage once a day, for seven consecutive days. The circumference of the right hind paw was marked and measured before the last administration, and the average value of the two measurements was taken as the standard. 1 h after the last administration, animals in other groups were given 50 μL of 2% MSU in addition to the blank control group, and the paw circumference was measured 1 h after the onset of inflammation. […]

[4] = ICR mice, 130 mg/kg by gavage once a day for seven days, 180 min after onset of inflammation
[5] = ICR mice, 130 mg/kg by gavage once a day for seven days
[6] = mouse, carrageenan-induced paw swelling
[7] = mouse, carrageenan-induced paw swelling, dosage 130 mg/kg
[8] = SD rats, 90 mg/kg by gavage once a day for seven days, 1 h after onset of inflammation
[9] = rat, MSU-induced paw swelling, dosage 90 mg/kg
[10] = SD rats, 90 mg/kg by gavage once a day for seven days

SMILES | Mortality ([1]; 4 g/kg) | Mortality ([1]; 4.91 g/kg) | Mortality ([1]; 6.14 g/kg) | Mortality ([1]; 7.68 g/kg) | Mortality ([1]; 9.6 g/kg) | Mortality ([1]; 12 g/kg) | Mortality ([1]; 15 g/kg) | Swelling value [2, 4] [cm] | Circumference of the paw after administration [2, 5] [cm] | inhibition in vivo at 0.26 mg/kg [2, 6] [%] | inhibition in vivo at 13 mg/kg [2, 6] [%] | inhibition in vivo at 130 mg/kg [2, 7] [%] | change in vivo at 130 mg/kg [2, 4] [%] | inhibition in vivo at 130 mg/kg [2, 4] [%] | inhibition in vivo at 90 mg/kg [3, 8] [%] | inhibition in vivo at 0.36 mg/kg ([3]; rat, MSU-induced paw swelling) [%] | inhibition in vivo at 1.8 mg/kg ([3]; rat, MSU-induced paw swelling) [%] | inhibition in vivo at 9 mg/kg ([3]; rat, MSU-induced paw swelling) [%] | inhibition in vivo at 90 mg/kg [3, 9] [%] | change in vivo at 90 mg/kg [3, 8] [%] | further results
C[C@H]1C[C@@H]2[C@H]([C@@H](O)C[C@@]3(C)[C@H]2CC[C@]3(O)/C(CO)=N/O)[C@@]2(C)C=CC(=NO)C=C12 [Example 1, (6S,8S, 9S, 10R, 11S, 13S, 14S, 17R)-11,17-dihydroxy-17-((E)-2-hydroxy-1-(hydroxyimino)ethyl)-6,10,13-trimethyl-6,7,8,9,10,11,12,13,14,15,16,17-dodecahydro-3H-cyclopentane[α]phenanthrene-3-one oxime] | 0/12 | 0/12 | 0/12 | 0/12 | 0/12 | 0/12 | 0/12 | 0.01 | 1.46 | 10.3 | 58.1 | 97.4 | 0.69 | 96.4 | 99.7 | 12.1 | 45.2 | 68.2 | 97.4 | 0.85 | Swelling value [3, 8]: 0.01 mL; Mean volume of paw after administration [3, 10]: 1.19 mL
CC(=O)OC/C(=N\O)[C@@]1(O)CC[C@H]2[C@@H]3C[C@H](C)C4=CC(=NO)C=C[C@]4(C)[C@H]3[C@@H](O)C[C@@]21C [Example 2, (2E)-2-((6S,8S,9S,10R,11S,13S,14S,17R)-11,17-dihydroxy-3-(hydroxyimino)-6,10,13-trimethyl-6,7,8,9,10,11,12,13,14,15,16,17-dodecahydro-3H-cyclopentane[α]phenanthrene-17-yl)-2-(hydroxyimino)ethyl acetate] | 0/12 | 0/12 | 0/12 | 0/12 | 1/12 | 4/12 | 6/12 | 0.01 | 1.43 | 15.1 | 63.1 | 96.2 | 0.7 | 96.4 | 99 | 15.1 | 32.1 | 52.1 | 98.2 | 3.23 | Swelling value [3, 8]: 0.04 mL; Mean volume of paw after administration [3, 10]: 1.28 mL
C[C@]12C=CC(=NO)C=C1CC[C@@H]1[C@@H]2[C@@H](O)C[C@@]2(C)[C@H]1CC[C@]2(O)/C(CO)=N/O [Example 3, (8S,9S,10R,11S,13S,14S,17R)-11,17-dihydroxy-17-((E)-2-hydroxy (hydroxyimino)ethyl)-10,13-dimethyl-6,7,8,9,10,11,12,13,14,15,16,17-dodecahydro-3H-cyclopentane[α]phenanthrene-3-one oxime] | 0/12 | 0/12 | 0/12 | 0/12 | 0/12 | 0/12 | 1/12 | 0.05 | 1.53 | 9.12 | 42.3 | 78.2 | 3.38 | 82.5 | 80.5 | 10.2 | 25.2 | 32.1 | 82.1 | 64.2 | Swelling value [3, 8]: 0.77 mL; Mean volume of paw after administration [3, 10]: 1.97 mL
CCON=C1C=C[C@@]2(C)C(=C1)[C@@H](C)C[C@@H]1[C@@H]2[C@@H](O)C[C@@]2(C)[C@H]1CC[C@]2(O)/C(CO)=N/OCC [Example 9, (6S,8S,9S,10R,11S,13S,14S,17R,E)-17-((E)-1-(ethoxysimino)-2-hydroxyethyl)-11,17-dihydroxy-6,10,13-trimethyl-6,7,8,9,10,11,12,13,14,15,16,17-dodecahydro-3H-cyclopentane[α]phenanthrene-3-ketoO-ethyl oxime] | 0/12 | 0/12 | 0/12 | 0/12 | 0/12 | 0/12 | 2/12 | – | – | – | – | – | – | – | – | – | – | – | – | – | –
C[C@H]1C[C@@H]2[C@H]([C@@H](O)C[C@@]3(C)[C@H]2CC[C@]3(O)C(=O)CO)[C@@]2(C)C=CC(=O)C=C12 [Methylprednisolone, methylprednisolone, reference compound] | – | – | – | – | – | – | – | 0.15 | 1.63 | 12.1 | 31.4 | 51.2 | 10.1 | 47.6 | 53.8 | 12.3 | 17.6 | 43.5 | 55.4 | 152 | Swelling value [3, 8]: 1.87 mL; Mean volume of paw after administration [3, 10]: 3.1 mL
